Test system: IMQ induced psoriasis
Experimental: Test Item Details • 1. Dexamethasone Cat. or Batch no.: BCBM4557V (sigma) • Vehicle for dexamethasone (Veh.1): acetone:ethanol (1:1) • Dose: 0.1 mg/ear & 0.25 mg in back skin • Dose volume: 20 μL/ear & 50 μL on back skin • 2. Crisaborole: PZ0037 (Sigma) • Vehicle (Veh.1): acetone:ethanol (1:1) • Dose: 0.1 mg/ear & 0.25 mg in back skin • Dose volume: 20 μL/ear, 50 μL on back skin • 3. Compound of Formula (I) • Vehicle (Veh.1): acetone:ethanol (1:1) • Dose: 0.1 mg/ear & 0.25 mg in back skin • Dose volume: 20 μL/ear, 50 μL on back skin Dexamethasone and Test Item Preparation and Application: • Strength=5 mg/ml
Application=100 μg/20 pit per each ear+250 μg/50 μL on the back G2 to G4 receive Dexamethasone, Crisaborole or test item: Daily topical treatment (D0-D6): 0.1 mg in 20 μl per ear x both the ears+0.25 mg in 50 μl (on the back) 6-8 hrs after IMQ application.
Disease Induction: Application of 5% IMQ cream 40 mg (back) and 5 mg (per ear—Inner surface) daily from day 0-6.
Treatment: 0.5% Dexamethasone solution: 0.25 mg (back) and 0.1 mg (per ear) 8 hrs post IMQ. • Day −2—Depilation on back region • Day 0—Observations (Body weight; ear thickness using digital microcaliper) • Day 2—Observations (Body weight; ear thickness using digital microcaliper) • Day 4—Observations (Body weight; ear thickness using digital microcaliper) • Day 6—Observations (Body weight; ear thickness using digital microcaliper); Blood collection (PK) and Termination {2 hrs after last dose) • Ear collection: PK, Cytokine, MPO, Thickness • Back skin collection, scoring and thickness measurement • Histopathology (optional)
The dorsal posterior area (2 cm×2 cm) of animals is depilated using a hair trimmer. 5% Imiquimod cream: 50 mg/animal (40 mg on the shaved back+5 mg each on the inner part of right and left ear) QD is applied on days 0 to 5 (Groups 1-4).
The body weight is recorded individually for all animals at receipt, day of randomization, prior to treatment, and once in two days thereafter. The animals are observed for mortality at regular intervals.
2 hrs post compound treatment on day 6, all the animals are euthanized, and ear tissues are collected. The right ear is flash frozen in liquid nitrogen and stored at −80° C. until homogenization for MPO and cytokine estimation.
The half of the left ear is used for drug concentration measurement. The other half of the left ear tissue is used for histopathology. The back skin is collected for visual assessment (scoring) and histopathology.
MPO analysis: Snap frozen ear tissue samples are homogenized in 1× assay buffer provided in the kit. The homogenates are centrifuged at 8000 g for 10 minutes in a refrigerated centrifuge. The supernatants are discarded, and the pellet is resuspended in solubilisation buffer (1× assay buffer containing 0.5% HTABr). The samples are homogenized and subjected to three rounds of freeze thaw followed by brief sonication for 10s. The samples are centrifuged at 12,000 g for 10 minutes in a refrigerated centrifuge and the resulting supernatants are analysed for MPO levels based on a fluorometric detection kit. The Kit utilizes a non-fluorescent detection reagent, which is oxidized in the presence of hydrogen peroxide and MPO to produce its fluorescent analogue. (Enzo Life Sciences; ADI-907-029).
Histopathology: At study termination, posterior dorsal skin and ear skin samples are collected. Skin samples are processed using routine histopathological methods and 4-5 μm paraffin sections are prepared. Tissue sections (3 serial sections/animal) are stained with Hematoxylin and eosin (H&E) to evaluate acanthosis, hyper/parakeratosis and inflammatory cellular infiltration in dermis. Severity of lesions are assessed semi quantitatively on a scale of 0-4 by two independent pathologists (0—normal, 1—mild degree, 2—moderate degree, 3—severe degree and 4—extensive or multiple locations) for each parameter in a blinded manner.

Row | Compound | MPO activity in ear tissue homogenates (day 6, topical 0.5%, vs IMQ control) | Back skin thickness (day 6 at termination, topical 0.5%, vs IMQ control) | Cumulative clinical scores (erythema, skin thickness, scales) (topical 0.5%, back skin, maximum score 12, vs IMQ control) | Ear thickness (topical 0.5%, daily, vs IMQ control) | Overall cumulative HP scores of ear skin (topical 0.5%, maximum score 16, vs IMQ control) | Spleen weight or normalized spleen weight (topical 0.5%, vs IMQ control) | Cytokine levels in ear tissue homogenates (topical treatment, vs IMQ control) | Body weight / body weight loss (mouse, in vivo)
1 | N#Cc1ccc(Oc2ccc3c(c2)COB3O)cc1 [Crisaborole, reference compound] | do not show significant inhibition | do not show significant reduction | significant reduction in the cumulative clinical scores on day 6 | significant reduction in ear thickness on day 6 | significant reduction | do not show significant reduction | significant reduction in few of the proinflammatory cytokines | 
2 | C[C@@H]1C[C@H]2[C@@H]3CCC4=CC(=O)C=C[C@]4(C)[C@@]3(F)[C@@H](O)C[C@]2(C)[C@@]1(O)C(=O)CO [Dexamethasone, reference compound] |  |  |  |  |  |  |  | significant body weight loss

From patent publication US12622915B2, “Methods of treating PDE IV-mediated diseases or conditions” (Vanda Pharmaceuticals Inc., priority 2020, dated 2026)
